Experimental findings from patent US20240238318A1, “L-FUCOSE AND ANTI-ANDROGEN RECEPTOR THERAPY FOR TREATMENT OF CANCER” (H. LEE MOFFITT CANCER CENTER AND RESEARCH INSTITUTE, INC., priority 2021, published 2024) are described below.

The structures appear in SMILES notation.

For the assay, the system named is tumor growth and metastasis. The experiment in a line: dietary L-fucose supplementation in mouse tumor models. The class given is in vivo. The text has this:
Global fucosylation is reduced during progression in human melanomas (UEA1 fucose-binding lectin staining analysis of tumor microarray (TMA; n=˜300 patients)) via an ATF2-mediated transcriptional repression of fucokinase (FUK). However, AR transcriptionally upregulates Fucosyltransferase 4 (FUT4) expression via binding to the ARE motif in FUT4 promoter (FIG. 3). Additionally, the global tumor fucosylation is more pronounced in males relative to females (FIG. 4). […] Furthermore, the AR-FUT4 axis facilitates melanoma invasion via disrupting N-Cadherin/catenin junction complexes (FIG. 6). […] Thus, FUT4 is required for androgen-stimulated melanoma cell viability and motility (FIG. 7).

With `C[C@H](O)[C@@H](O)[C@@H](O)[C@H](O)C=O` [L-fucose], the “block of tumor growth and metastasis” value was more than 50%.
